Key:
[1] = system: blackgrass (ALOMY) biotypes; test: Greenhouse test, control of resistant weed biotypes, post-emergence, blackgrass; type: in vivo, Alopecurus myosuroides; details: post-emergence, scale 0 to 100
Procedure: (§1) The herbicidal activity of herbicide A on resistant weed biotypes was tested in comparison with certain commercial herbicides by the following greenhouse experiments:
(§2) The culture containers used were plastic flowerpots containing loamy sand with approximately 3.0% of humus as the substrate. The seeds of the test plants were sown separately for each species. Six blackgrass (ALOMY) (10-103, 10-170, 09-591, 10-123, 11-215, 11-146) and six ryeg rass (LOLMU) (12-166, 12-143, 12-165, 12-307, 13-304, 13-313) biotypes with varying degrees of resistance towards a range of modes of action according to the HRAC (Herbicide Resistance Action Committee) classification on mode of action 2010 (see e.g http://www.hracglobal.com/pages/classificationofherbicidesiteofaction.aspx) were tested alongside two non-resistant biotypes (14-116 and 13-243), see Tables 1 and 2 below.
(§3) For the post-emergence treatment, the test plants were first grown to a height of 3 to 15 cm, depending on the plant habit, and only then treated with the active ingredients which had been suspended or emulsified in water. For this purpose, the test plants were either sown directly and grown in the same containers, or they were first grown separately as seedlings and transplanted into the test containers a few days prior to treatment.
(§4) Depending on the species, the plants were kept at 10-25° C. or 20-35° C. The test period extended over 2 to 4 weeks. During this time, the plants were tended, and their response to the individual treatments was evaluated.
(§5) The racemic mixture (±)-2-exo-(2-Methylbenzyloxy)-1-methyl-4-isopropyl-7-oxabicyclo[2.2.1]heptane was used as herbicide A and formulated as emulsifiable concentrates with an active ingredient concentration of 50 g/l, 100 g/l or 750 g/l respectively.
(§6) Flufenacet was used as a commercial concentrated solution formulation having an active ingredient concentration of 500 g/l (Cadou).
(§7) Imazamox was used as a water dispersible granule (70% WG).
(§8) Evaluation of the herbicidal activity was carried out using a scale from 0 to 100. 100 means complete destruction of at least the aerial moieties, and 0 means no damage, or normal course of growth. A good herbicidal activity is given at values of at least 70 and a very good herbicidal activity is given at values of at least 85.

[2] = system: ryegrass (LOLMU) biotypes; test: Greenhouse test, control of resistant weed biotypes, post-emergence, ryegrass; type: in vivo, Lolium multiflorum; details: post-emergence, scale 0 to 100
Procedure: as §1, §2, §3, §4, §5, §6, §7, §8

ALOMY = test: Greenhouse test, solo and combination, post-emergence, 20 DAT; type: in vivo, Alopecurus myosuroides; details: solo application 1 g ai/ha
Procedure: (§9) The test plants have been seeded, separately for each species, in plastic containers in sandy loamy soil containing 5% of organic matter.
(§10) For the post-emergence treatment, the plants were first grown to the 2 leaf station (GS 12) and applied at GS 12-19 depending on the species. The herbicidal compositions were suspended or emulsified in water as distribution medium and sprayed using finely distributing nozzles.
(§11) The plants have been cultivated due to their individual requirements at 10-25° C. and 20-35° C. The plants were irrigated due to their necessity.
(§12) The racemic mixture (±)-2-exo-(2-Methylbenzyloxy)-1-methyl-4-isopropyl-7-oxabicyclo[2.2.1]heptane was used as herbicide A and formulated as emulsifiable concentrate having an active ingredient concentration of 750 g/l.
(§13) Cyhalofop-butyl (herbicide B.5) was used as an emulsifiable concentrate (EC) formulation having an active ingredient concentration of 200 g/l.
(§14) Metsulfuron-methyl (herbicide B.53) was used as a water soluble granule (SG) formulation having an active ingredient concentration of 20%.
(§15) Bispyribac-sodium (herbicide B.23) was used as a soluble concentrate (SL) formulation having an active ingredient concentration of 408 g/l.
(§16) Quizalofop-P-ethyl (herbicide B.217) was used as a suspension concentrate (SC) formulation having an active ingredient concentration of 106 g/l.
(§17) In the following experiments, the herbicidal activity for the individual herbicide compounds (solo and mixture applications) was assessed 20 days after treatment (DAT).
(§18) The evaluation for the damage on undesired weeds caused by the chemical compositions was carried out using a scale from 0 to 100%, compared to the untreated control plants. Here, 0 means no damage and 100 means complete destruction of the plants.
(§19) The plants used in the greenhouse experiments belonged to the following species:
(§20) E=X+Y−(X·Y/100) • where X=effect in percent using herbicide A at an application rate a; • Y=effect in percent using herbicide B at application rate b; • E=expected effect (in %) of herbicide A+herbicide B at application rates a+b.
(§21) The value E corresponds to the effect (plant damage or injury) which is to be expected if the activity of the individual compounds is additive. If the observed effect is higher than the value E calculated according to the Colby equation, a synergistic effect is present.
(§22) Tables 3 to 6 below relate the herbicidal activity, in greenhouse trials, of the individual actives and the combination applied at different rates and ratios, in post-emergence application at 20 days after treatment (DAT).

BRSNW = test: as above; type: in vivo, Brassica napus
Procedure: as §9, §10, §11, §12, §13, §14, §15, §16, §17, §18, §19, §20, §21, §22

GALAP = test: as above; type: in vivo, Galium aparine
Procedure: as §9, §10, §11, §12, §13, §14, §15, §16, §17, §18, §19, §20, §21, §22

PAPRH = test: as above; type: in vivo, Papaver rhoeas
Procedure: as §9, §10, §11, §12, §13, §14, §15, §16, §17, §18, §19, §20, §21, §22

MATIN = test: as above; type: in vivo, Matricaria inodora
Procedure: as §9, §10, §11, §12, §13, §14, §15, §16, §17, §18, §19, §20, §21, §22

LOLRI = test: as above; type: in vivo, Lolium rigidum; details: solo application 1 g ai/ha
Procedure: as §9, §10, §11, §12, §13, §14, §15, §16, §17, §18, §19, §20, §21, §22

[3] = BT 09-591, resistant HRAC group A, B, K, 125 g ai/ha
[4] = BT 10-103, resistant HRAC group A, B, K, 125 g ai/ha
[5] = BT 10-123, resistant HRAC group A, B, C, 125 g ai/ha
[6] = BT 10-170, resistant HRAC group A, B, K, 125 g ai/ha
[7] = BT 11-146, resistant HRAC group K, 125 g ai/ha
[8] = BT 11-215, resistant HRAC group A, B, C, E, K, 125 g ai/ha
[9] = BT 14-116, Sensitive standard, 125 g ai/ha
[10] = BT 12-143, resistant HRAC group A, B, C, E, K, 125 g ai/ha
[11] = BT 12-165, resistant HRAC group A, B, E, K, 125 g ai/ha
[12] = BT 12-166, resistant HRAC group A, B, E, K, 125 g ai/ha
[13] = BT 12-307, resistant HRAC group B, F, K, O, 125 g ai/ha
[14] = BT 13-243, Sensitive standard, 125 g ai/ha
[15] = BT 13-304, resistant HRAC group A, B, E, K, 125 g ai/ha
[16] = BT 13-313, resistant HRAC group A, B, C, E, K, 125 g ai/ha

`COCc1cnc(C2=NC(C)(C(C)C)C(=O)N2)c(C(=O)O)c1` (stereo not shown) [Imazamox, imazamox] gave a Herbicidal activity ([1]; BT 09-591, resistant HRAC group A, B, K, 62.5 g ai/ha) of 20, a Herbicidal activity [1, 3] of 50 and a Herbicidal activity ([1]; BT 10-103, resistant HRAC group A, B, K, 62.5 g ai/ha) of 60. The Herbicidal activity [1, 4] was 70, the Herbicidal activity ([1]; BT 10-123, resistant HRAC group A, B, C, 62.5 g ai/ha) was 60 and the Herbicidal activity [1, 5] was 70. The Herbicidal activity ([1]; BT 10-170, resistant HRAC group A, B, K, 62.5 g ai/ha) was 80, the Herbicidal activity [1, 6] was 95 and the Herbicidal activity ([1]; BT 11-146, resistant HRAC group K, 62.5 g ai/ha) was 75. It also gave a Herbicidal activity [1, 7] of 75, a Herbicidal activity ([1]; BT 11-215, resistant HRAC group A, B, C, E, K, 62.5 g ai/ha) of 85 and a Herbicidal activity [1, 8] of 85. The Herbicidal activity ([1]; BT 14-116, Sensitive standard, 62.5 g ai/ha) was 95, the Herbicidal activity [1, 9] was 95 and the Herbicidal activity ([2]; BT 12-143, resistant HRAC group A, B, C, E, K, 62.5 g ai/ha) was 65. The Herbicidal activity [2, 10] was 75, the Herbicidal activity ([2]; BT 12-165, resistant HRAC group A, B, E, K, 62.5 g ai/ha) was 70 and the Herbicidal activity [2, 11] was 85. The Herbicidal activity ([2]; BT 12-166, resistant HRAC group A, B, E, K, 62.5 g ai/ha) was 85, the Herbicidal activity [2, 12] was 98 and the Herbicidal activity ([2]; BT 12-307, resistant HRAC group B, F, K, O, 62.5 g ai/ha) was 80. The Herbicidal activity [2, 13] was 85, the Herbicidal activity ([2]; BT 13-243, Sensitive standard, 62.5 g ai/ha) was 90 and the Herbicidal activity [2, 14] was 85. The Herbicidal activity ([2]; BT 13-304, resistant HRAC group A, B, E, K, 62.5 g ai/ha) was 90, the Herbicidal activity [2, 15] was 85 and the Herbicidal activity ([2]; BT 13-313, resistant HRAC group A, B, C, E, K, 62.5 g ai/ha) was 80. It also gave a Herbicidal activity [2, 16] of 85.
With `CC(C)N(C(=O)COc1nnc(C(F)(F)F)s1)c1ccc(F)cc1` [Flufenacet, flufenacet] the Herbicidal activity [1, 3] was 80, the Herbicidal activity ([1]; BT 09-591, resistant HRAC group A, B, K, 250 g ai/ha) was 95 and the Herbicidal activity [1, 4] was 75. The Herbicidal activity ([1]; BT 10-103, resistant HRAC group A, B, K, 250 g ai/ha) was 90, the Herbicidal activity [1, 5] was 80 and the Herbicidal activity ([1]; BT 10-123, resistant HRAC group A, B, C, 250 g ai/ha) was 95. The Herbicidal activity [1, 6] was 90, the Herbicidal activity ([1]; BT 10-170, resistant HRAC group A, B, K, 250 g ai/ha) was 95 and the Herbicidal activity [1, 7] was 70. For the same molecule, the Herbicidal activity ([1]; BT 11-146, resistant HRAC group K, 250 g ai/ha) was 80, the Herbicidal activity [1, 8] was 75 and the Herbicidal activity ([1]; BT 11-215, resistant HRAC group A, B, C, E, K, 250 g ai/ha) was 95. It also gave a Herbicidal activity [1, 9] of 98, a Herbicidal activity ([1]; BT 14-116, Sensitive standard, 250 g ai/ha) of 100 and a Herbicidal activity [2, 10] of 60. The Herbicidal activity ([2]; BT 12-143, resistant HRAC group A, B, C, E, K, 250 g ai/ha) was 60, the Herbicidal activity [2, 11] was 60 and the Herbicidal activity ([2]; BT 12-165, resistant HRAC group A, B, E, K, 250 g ai/ha) was 60. For the same molecule, the Herbicidal activity [2, 12] was 10, the Herbicidal activity ([2]; BT 12-166, resistant HRAC group A, B, E, K, 250 g ai/ha) was 60 and the Herbicidal activity [2, 13] was 15. For the same molecule, the Herbicidal activity ([2]; BT 12-307, resistant HRAC group B, F, K, O, 250 g ai/ha) was 15, the Herbicidal activity [2, 14] was 80 and the Herbicidal activity ([2]; BT 13-243, Sensitive standard, 250 g ai/ha) was 95. It also gave a Herbicidal activity [2, 15] of 75, a Herbicidal activity ([2]; BT 13-304, resistant HRAC group A, B, E, K, 250 g ai/ha) of 75 and a Herbicidal activity [2, 16] of 35. The Herbicidal activity ([2]; BT 13-313, resistant HRAC group A, B, C, E, K, 250 g ai/ha) was 50.
`COC(=O)c1ccccc1S(=O)(=O)NC(=O)Nc1nc(C)nc(OC)n1` [metsulfuron-methyl] gave a Herbicidal activity (ALOMY) of 0%, a Herbicidal activity (BRSNW; solo application 1 g ai/ha) of 90% and a Herbicidal activity (BRSNW; solo application 2 g ai/ha) of 95%. For the same molecule, the Herbicidal activity (BRSNW; solo application 8 g ai/ha) was 98%, the Herbicidal activity (GALAP; solo application 4 g ai/ha) was 30% and the Herbicidal activity (GALAP; solo application 8 g ai/ha) was 25%. It also gave a Herbicidal activity (PAPRH; solo application 1 g ai/ha) of 0%, a Herbicidal activity (PAPRH; solo application 4 g ai/ha) of 50% and a Herbicidal activity (PAPRH; solo application 8 g ai/ha) of 98%. It also gave a Herbicidal activity (MATIN; solo application 1 g ai/ha) of 90%, a Herbicidal activity (MATIN; solo application 2 g ai/ha) of 90% and a Herbicidal activity (MATIN; solo application 4 g ai/ha) of 85%. The Herbicidal activity (MATIN; solo application 8 g ai/ha) was 90% and the Herbicidal activity (LOLRI) was 10%.

Source: patent US12336536B2, “Method for controlling herbicide resistant or tolerant weeds” (BASF Agro B.V., priority 2015, dated 2025)
